This note sets out measurements from patent US4339378A, “N-Acylcarnosine aluminum salts” (Nippon Chemiphar Co., Ltd., priority 1979, dated 1982).

What all share (format): in vivo, male Donryu strain rats
Assay [1] deals with Shay's ulcer in rats. Kind of assay: Shay's ulcer (pylorus ligation) in rats. To be noted: for Ulcer index: total ulcerated area in forestomach. Here is the method:
Shay's ulcer: Groups of ten male Donryu strain rats each weighing 210 to 230 g were deprived of food for 48 hours. The pylorus of each rat was ligated according to the method of Shay et al [Gastroenterology, 5, 43-61 (1945)]. Each of the animals was allowed to stand abstained from food and water for further 14 hours and then sacrificed to remove its stomach. After collection of the gastric juice, the ulcerated area (mm^2) in the forestomach of each rat was measured under a dissecting microscope (10×). The total area (mm^2) of all the lesions of each rat was indicated as an ulcer index. Test medicine samples were given orally immediately after the pylorus ligation.

The subject of assay [2] is Stress ulcer in rats. Briefly: Stress ulcer (restraint and water immersion) in rats. The settings on record: for Ulcer index: total lesion length in glandular portion, control 15.2 ± 3.2. Here is the method: Stress ulcer: Groups of ten male Donryu strain rats each weighing 240 to 260 g were placed in a stress cage which served to immobilize the animals therein and then immersed in a water bath of 23° C. on a level with the xiphoid process according to the method of K. Takagi et al [Jap. J. Pharmac., 18 (9), 9-19 (1968)], thereby imposing stress on each rat. Seven hours after the immersion, each of the animals was withdrawn from the water bath and immediately sacrificed by a blow on the head, followed by removal of the stomach of each rat. The stomach was slightly inflated by injecting a 1% formalin solution and then immediately immersed in a 1% formalin solution, followed by incising the stomach along its greater curvature to measure the length (mm) of each lesion in the glandular portion under a dissecting microscope (10×). The total length (mm) of all the lesions of each rat was indicated as an ulcer index. Test medicine samples were given orally ten minutes before the immersion in water.

In assay [3] the test system is Indomethacin-induced ulcer in rats. Kind of assay: Indomethacin-induced ulcer in rats. The settings on record: 300 mg/kg P.O., indomethacin 25 mg/kg s.c.; for Ulcer index: total lesion length, control 16.3 ± 2.4. Here is the method:
Indomethacin-induced ulcer: Groups of ten male Donryu strain rats each weighing 200 to 215 g were deprived of food for 24 hours. Then, the pylorus was ligated under ether anethesia, after which indomethacin was administered subcutaneously in an amount of 25 mg/kg to each rat. Seven hours after the administration, each of the animals was sacrificed under ether anethesia to remove its stomach, followed by immersion in a 1% formalin solution for ten minutes. The stomach which had been semi-fixed was incised along its greater curvature, and the length (mm) of each lesion formed in the mucous membrane was measured under a dissecting microscope (10×). The total length (mm) of all the lesions of each rat was indicated as an ulcer index. Test medicine samples were given orally ten minutes before the pylorus logation.

Assay [4] deals with Histamine-induced ulcer in rats. Kind of assay: Histamine-induced ulcer in rats. The settings on record: 300 mg/kg P.O., histamine phosphate 300 mg/kg i.p.; for Ulcer index: total lesion length, control 24.1 ± 4.7. Here is the method:
Histamine-induced ulcer: Groups of ten male Donryu strain rats each weighing 210 to 230 g were deprived of food for 48 hours and then administered intraperitoneally with histamine phosphate (300 mg/kg). Four hours after the administration, each of the animals was sacrificed under ether anesthesia, followed by removal of its stomach and immersion in a 1% formalin solution for ten minutes. The stomach which had been semi-fixed was incised along the greater curvature, and the length (mm) of each lesion was measured under a dissecting microscope (10×). The total length (mm) of all the lesions of each rat was indicated as an ulcer index. Test medicine samples were given orally before the histamine administration.

For assay [5], the system named is Aspirin-induced ulcer in rats. Kind of assay: Aspirin-induced ulcer in rats. The settings on record: 1,000 mg/kg P.O., aspirin 100 mg/kg; for Ulcer index: total lesion length, control 17.7 ± 2.3. Here is the method: Aspirin-induced ulcer: Groups of ten male Donryu strain rats each weighing 220 to 230 g were deprived of food for 24 hours. The pylorus of each rat was ligated under ether anethesia according to the method of S. Okabe et al [Jap. J. Pharmac. 24, 357-361 (1974)]. After the pylorus ligation, aspirin (100 mg/kg) was administered orally to each rat. Seven hours after the administration, each of the animals was sacrificed under ether anesthesia to remove its stomach. After collection of the gastric juice and treatment with a 1% formalin solution, the length (mm) of each lesion formed in the glandular portion was measured. The total length (mm) of all the lesions of each rat was indicated as an ulcer index. Test medicine samples were given orally immediately after the pylorus ligation.

Setting [6] is: 1,000 mg/kg P.O., first series (control 2.4 ± 0.7).
The mark [7] stands for this setting: 2,000 mg/kg P.O., second series (control 2.9 ± 0.4).
Setting [8] is: 1,000 mg/kg P.O., second series (control 2.9 ± 0.4).

For orientation: % Inhibition means the drop in the measured response relative to a control, in per cent. Read a low % Inhibition as a response near the control. Turning to `NCCC(=O)N[C@@H](Cc1cnc[nH]1)C(=O)O` [L-Carnosine, L-carnosine], the “% Inhibition” value in assay [1] (setting [6]) was 12.5%; in assay [2] (300 mg/kg P.O.) it was 6.6%; in assay [2] (1,000 mg/kg P.O.), 29.6%; in assay [3], ~ 0%; in assay [4], 28.2%. Moreover, the Ulcer index in assay [1] (setting [6]) stood at 2.1 ± 0.7 mm^2; in assay [2] (300 mg/kg P.O.) it was 14.2 ± 3.7 mm; in assay [2] (1,000 mg/kg P.O.), 10.7 ± 2.2 mm; in assay [3] it was 17.3 ± 3.0 mm; in assay [4] it was 17.3 ± 3.2 mm.

As to `NC(=O)CC[C@H](N)C(=O)O` [L-Glutamine, L-glutamine], the “% Inhibition” value worked out at 8.3% in assay [1] (setting [6]), 66.1% in assay [5] and 41.8% in assay [3]. In addition, the Ulcer index in assay [1] (setting [6]) came out at 2.2 ± 0.8 mm^2; in assay [5], 6.0 ± 2.2 mm; in assay [3], 9.5 ± 4.1 mm.

For the molecule `CC(=O)N[C@@H](CCC(N)=O)C(=O)O.[Al]` [N-Acetyl-L-glutamine aluminum, N-acetyl-L-glutamine aluminum], in assay [1] (setting [7]), the “% Inhibition” value stood at 69.0% and the Ulcer index was determined as 0.9 ± 0.7 mm^2.

Consider N-acetyl-L-carnosine aluminum salt [B], for which, in assay [1] (setting [8]), the “% Inhibition” value is 79.3% and the Ulcer index turned out to be 0.6 ± 0.8 mm^2.

Consider N-acetylcarnosine aluminum salt, for which the “% Inhibition” value was determined as 80.4% in assay [1] (setting [6]); 46.7% in assay [2] (300 mg/kg P.O.); 70.4% in assay [2] (1,000 mg/kg P.O.); 96.0% in assay [5]; 63.2% in assay [3]; 61.0% in assay [4]. Further, the Ulcer index in assay [1] (setting [6]) is given as 0.47 ± 0.4 mm^2; in assay [2] (300 mg/kg P.O.) it was 8.1 ± 2.9 mm; in assay [2] (1,000 mg/kg P.O.), 4.5 ± 2.4 mm; in assay [5] it was 0.7 ± 0.6 mm; in assay [3], 6.0 ± 2.4 mm; in assay [4], 9.4 ± 2.0 mm.

Regarding aluminum sucrose sulfate, the “% Inhibition” value in assay [1] (setting [6]) came to 71.0%; in assay [1] (setting [8]), 72.4%; in assay [2] (1,000 mg/kg P.O.), 56.7%; in assay [5], 79.1%; in assay [3] it was 52.1%; in assay [4], 40.2%. The Ulcer index in assay [1] (setting [6]) is on record as 0.7 ± 0.8 mm^2; in assay [1] (setting [8]), 0.8 ± 0.6 mm^2; in assay [2] (1,000 mg/kg P.O.), 6.5 ± 6.0 mm; in assay [5], 3.7 ± 2.1 mm; in assay [3] it was 7.8 ± 3.0 mm; in assay [4] it was 14.4 ± 1.5 mm.
